# Experimental data: patent US11104647B2, “Multi-functional, stimuli-responsive materials, methods of preparation, methods of use, and uses thereof” (ADA Foundation, priority 2016, dated 2021)
# Experiments:
# E. coli [1] = test: Minimum bactericidal concentration (MBC) determination by agar colony formation; format: cell-based, Escherichia coli (E. coli, K12); conditions: for MBC: Escherichia coli, 0.75 h, 45 min treatment
# Description: (§1) Azo-QPS-C16 was effective on both […] bacteria. The ability of bacteria to proliferate after exposure to Azo-QPS-C16 was characterized by adding growth medium and measuring the optical density (OD) at 600 nm every 15 minutes in pH 4.1, 5.8, and 7.9 buffer. […] However, exposure at pH 7.9 required a much higher concentration (40 μg/mL) to inhibit cell growth. […] The pH dependence of bactericidal activity of Azo-QPS-C16 in terms of minimum bactericidal concentration (MBC) was evaluated by inoculating cultures onto a Lysogeny Broth (LB) agar plate after treating the cells with a twofold dilution series of Azo-QPS-C16.
# (§2) Bacterial strains and growth conditions. Streptococcus mutans (S. mutans, UA159) and Escherichia coli (E. coli, K12) were purchased from ATCC (American Type Culture Collection, Manassas, Va., USA). Todd Hewitt Broth (THB), and Lysogeny Broth (LB) powder and agar were purchased from BD (Becton, Dickinson and Company, Franklin Lakes, N.J., USA). Planktonic cultures were inoculated from 25% (by volume) glycerol frozen stocks stored at −80° C. E. coli cultures were grown in LB at 37° C. in a shaker-incubator. S. mutans cultures were grown in THB at 37° C. with 5% (by volume) CO2 overnight.
# (§3) Bacterial growth curves. Overnight cultures of E. coli and S. mutans were diluted directly into buffers with different pH values (100 mmol/L, pH 4.1 sodium acetate buffer, pH 5.8 sodium phosphate buffer, and pH 7.9 sodium phosphate buffer) to an optical density at 600 nm (OD600) of approximately 0.001.
# (§4) In a 96-well plate, 2 μL of Azo-QPS-C16 at various concentrations in dimethyl sulfoxide (DMSO) were added to 98 μL of bacteria suspension per well for a final concentration ranging from a 2-fold dilution series between 40 to 1.25 μg/mL of Azo-QPS-C16. After 45 minutes of treatment at room temperature, 10 μL from each well was transferred to a new 96-well plate already containing 100 μL growth media per well to measure the growth curves. E. coli were cultured at 37° C., and the OD600 of each well was measured by a Tecan Spark microplate reader (Männedorf, Switzerland) every 15 minutes for up to 19 hours, with 30 seconds shaking before each measurement. S. mutans were grown at 37° C. with 5% CO2, and the OD600 of each well was measured periodically using a Molecular Devices (Sunnyvale, Calif.) SpectraMax M5 microplate reader. All experiments were conducted in triplicate and repeated at least three times on different days.
# (§5) Minimum bactericidal concentration (MBC) determination. MBC values were determined by agar colony formation. […] 5 μL of the suspended cells from each well were spotted onto an agar plate and incubated for 48 hours to allow colony formation, and the presence or absence of bacterial growth was determined by naked eye. […]
# Solubility in water = format: physicochemical
# E. coli [2] = test: Bacterial growth curves (OD600) after exposure in buffer; format: cell-based, Escherichia coli (E. coli, K12)
# Description: as §1
# Bacterial strains and growth conditions. […]
# as §4, with “After 45 minutes of treatment at room temperature, 10 μL from each well was transferred to a new 96-well plate already containing 100 μL growth media per well to measure the growth curves.” left out, “All experiments were conducted in triplicate and repeated at least three times on different days.” left out
# pKa = format: physicochemical
# [3] = Dynamic light scattering (DLS) of pH-dependent assembly; format: physicochemical
# Description: Particles with an average hydrodynamic diameter of 51±19 nm formed in mildly basic conditions, occurring simultaneously with the appearance of the absorbance peak at 554 nm. […] One cycle corresponds to the addition of a base and an acid. In base and acid, respectively, the absorbance at 554 nm increased and then decreased, and the particles formed and disassembled.
# Dynamic light scattering (DLS) was performed using a Nicomp 380 ZLS DLS system (Particle Sizing Systems Inc., Santa Barbara, Calif.). Samples were contained in disposable glass culture tubes. Prior to sample loading, the tubes were blown with nitrogen gas and filled with 0.4 mL of a dye sample. The tubes were sealed using parafilm and then centrifuged at 14,000 rpm (19,000 g) for 5 minutes to separate larger particles. Samples were placed in the instrument and allowed to attain thermal equilibrium. An autocorrelation function was acquired for 3 minutes at 173° scattering angle. A Laplace inversion-based Nicomp routine was used to find the distribution of decay rates. The decay rates are linked to the effective sphere hydrodynamic diameters by the appropriate equations. The size distribution is reported as a discrete set of diameter bins and corresponding intensity weighted fractions as probabilities assigned to diameter bins.
# S. mutans = test: Minimum bactericidal concentration (MBC) determination by agar colony formation; format: cell-based, Streptococcus mutans (S. mutans, UA159); conditions: for MBC: Streptococcus mutans, 0.75 h, 45 min treatment
# Description: as §1, §2, §3, §4, §5
compound,measurement,setting,value
"C=C(C)C(=O)Oc1ccc(/N=N/c2cc[n+](CCCCCCCCCCCCCCCC)cc2)cc1.[Br-] [Azo-QPS-C16, (E)-1-hexadecyl-4-((4-(methacryloyloxy)phenyl)diazenyl)-pyridinium bromide]",MBC,E. coli [1]; pH 4.1 buffer,2.5 µg/mL
same,MBC,E. coli [1]; pH 5.8 buffer,10 µg/mL
same,MBC,E. coli [1]; pH 7.9 buffer,40 µg/mL
same,Difference in MBC between pH 4.1 and pH 7.9,E. coli [1]; more effective at pH 4.1,16 fold
same,Solubility in water,Solubility in water,limited solubility in water
same,Concentration that fully inhibited E. coli growth,"E. coli [2]; exposure at pH 4.1, growth followed up to 19 hours",2.5 µg/mL
same,Concentration required to inhibit cell growth,E. coli [2]; exposure at pH 7.9,40 µg/mL
same,pKa,pKa,5.3
same,Average hydrodynamic diameter of particles,[3]; mildly basic conditions,51±19 nm
same,Particle formation,[3]; pH 4.1 buffer,No particles were found
same,MBC,S. mutans; pH 4.1 buffer,1.25 µg/mL
same,MBC,S. mutans; pH 5.8 buffer,5 µg/mL
same,MBC,S. mutans; pH 7.9 buffer,10 µg/mL
same,"Difference in MBC, acidic vs mildly basic conditions (pH 4.1 vs pH 7.9)",S. mutans; more effective in acidic conditions,8 fold
